Laboratory results reported in BindingDB's records for doi:10.1007/s002100000340 (University of Illinois At Chicago, 2001).

Columns and labels:
Adenosine receptor A3 = molecular target: T1, Adenosine receptor A3 (Gallus gallus, UniProt A0A8V1ACC1)
T1 sequence (A0A8V1ACC1 whole entry): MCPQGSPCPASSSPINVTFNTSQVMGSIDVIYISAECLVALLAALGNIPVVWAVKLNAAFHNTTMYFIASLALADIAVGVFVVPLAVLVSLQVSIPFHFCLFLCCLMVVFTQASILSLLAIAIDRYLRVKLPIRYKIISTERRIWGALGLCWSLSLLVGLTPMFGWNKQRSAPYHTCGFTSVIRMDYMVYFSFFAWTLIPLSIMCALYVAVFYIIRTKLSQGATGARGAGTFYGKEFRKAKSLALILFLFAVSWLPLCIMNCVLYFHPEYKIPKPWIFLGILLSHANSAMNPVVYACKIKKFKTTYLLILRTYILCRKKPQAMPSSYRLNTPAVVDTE

Adenosine receptor A1 = molecular target: T2, Adenosine receptor A1 (Gallus gallus, UniProt P49892)
T2 sequence (P49892 whole entry): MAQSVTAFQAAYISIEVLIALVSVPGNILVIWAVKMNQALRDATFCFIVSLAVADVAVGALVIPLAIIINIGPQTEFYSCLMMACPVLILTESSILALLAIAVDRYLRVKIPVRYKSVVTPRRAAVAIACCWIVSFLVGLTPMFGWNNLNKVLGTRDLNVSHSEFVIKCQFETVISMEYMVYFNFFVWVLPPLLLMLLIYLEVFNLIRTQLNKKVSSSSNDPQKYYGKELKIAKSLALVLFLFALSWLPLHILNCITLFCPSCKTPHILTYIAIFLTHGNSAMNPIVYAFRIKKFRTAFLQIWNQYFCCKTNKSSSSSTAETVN

SMILES	Ki (Adenosine receptor A3) [nM]	Ki (Adenosine receptor A1) [nM]
CC(C=C[C@@]1(O)C(C)=CC(=O)CC1(C)C)=CC(=O)O [CAS_14375-45-2]	56.1	–
CNC(=O)C1OC(n2cnc3c(NCc4cccc(I)c4)ncnc32)C(O)C1O (stereo unspecified) [3,4-dihydroxy-5-(6-{[(3-iodophenyl)methyl]amino}-9H-purin-9-yl)-N-methyloxolane-2-carboxamide]	2.8	16.3
CNC(=O)[C@H]1O[C@@H](n2cnc3c(NCc4cccc(I)c4)nc(Cl)nc32)[C@H](O)[C@@H]1O [2-Cl-IB-MECA]	–	74
OCC1OC(n2cnc3c(NC4CCCC4)nc(Cl)nc32)C(O)C1O (stereo unspecified) [2-(2-Chloro-6-cyclopentylamino-purin-9-yl)-5-hydroxymethyl-tetrahydro-furan-3,4-diol]	6.82	4.01
CC(Cc1ccccc1)Nc1ncnc2c1ncn2C1OC(CO)C(O)C1O (stereo unspecified) [R-N6-(2-phenylisopropyl) adenosine]	1.13	0.72
CCCn1c(=O)c2nc[nH]c2n(CCC)c1=O	53.3	11.2
OC[C@H]1O[C@@H](n2cnc3c(NC4CCCCC4)ncnc32)[C@H](O)[C@@H]1O [CHA]	17.1	1.66
Nc1ncnc2c1ncn2[C@@H]1O[C@H](C(=O)NCc2ccccc2)[C@@H](O)[C@H]1O [B-NECA]	6.79	6.83
Cc1ccc(-c2oc3ccc(Cl)cc3c(=O)c2Cl)c(OC(C)C)c1	3310	–
CCNC(=O)[C@H]1O[C@@H](n2cnc3c(N)ncnc32)[C@H](O)[C@@H]1O	37.1	23.4
CCOC(=O)C1=C(c2ccccc2)N=C(C)C(C(=O)OCC)C1/C=C/c1ccccc1 (stereo unspecified)	990	3430
CCCn1c(=O)c2[nH]c(-c3ccc(C=CC(=O)O)cc3)nc2n(CCC)c1=O [NSC_129447]	36.6	167
